Laboratory results as given in PubChem BioAssay AID2060886 (Molecular Pharmacology Branch, DTP, NCI, 2025).

Test system: 653999-131-R-J2-PDC complex spheroids, growth inhibition
Assay: Anticancer human tumor 653999-131-R-J2-PDC patient-derived lung adenocarcinoma cell line growth inhibition [RAS]
Settings: for IC50: curve of first compound; for viability, T/C: stronger effect = lower value
Procedure, shortened: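 Multi-cell-type spheroids: tumor cells plus HUVEC endothelial cells and mesenchymal stem cells. RAS-pathway inhibitors were combined with targeted agents, each dosed in half-log steps down from clinical Cmax, or from 10 microM when Cmax was unknown.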
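Also: spheroids exposed to the agents for seven days before the readout.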

Question: What does the source list for `CC1(O)CCCC1n1c(=O)c(C(F)F)cc2cnc(NC3CCN(S(C)(=O)=O)CC3)nc21` (stereo not given) + C=CC(=O)N1CCN(c2nc(OCC3CCCN3C)nc3c(F)c(-c4nc(N)cc(C)c4C(F)(F)F)c(Cl)cc23)C(C)C1?
Answer: IC50 (second compound 0.00316 µM): 5.56 µM; IC50 (second compound 0.01 µM): 5.34 µM; IC50 (second compound 0.0316 µM): 5.2 µM; IC50 (second compound 0.1 µM): 5.59 µM; IC50 (second compound 0.316 µM): 5.13 µM; IC50 (second compound 1 µM): 6.26 µM; viability, T/C (second compound 0.00316 µM, first compound 0.0316 µM): 74.3%; viability, T/C (second compound 0.00316 µM, first compound 0.1 µM): 63.4%; viability, T/C (second compound 0.00316 µM, first compound 0.316 µM): 57.5%; viability, T/C (second compound 0.00316 µM, first compound 1 µM): 63.5%; viability, T/C (second compound 0.00316 µM, first compound 3.16 µM): 75.9%; viability, T/C (second compound 0.00316 µM, first compound 10 µM): 32.5%; viability, T/C (second compound 0.01 µM, first compound 0.0316 µM): 82.5%; viability, T/C (second compound 0.01 µM, first compound 0.1 µM): 65.5%; viability, T/C (second compound 0.01 µM, first compound 0.316 µM): 56.6%; viability, T/C (second compound 0.01 µM, first compound 1 µM): 71.9%; viability, T/C (second compound 0.01 µM, first compound 3.16 µM): 68.8%; viability, T/C (second compound 0.01 µM, first compound 10 µM): 27.5%; viability, T/C (second compound 0.0316 µM, first compound 0.0316 µM): 77.6%; viability, T/C (second compound 0.0316 µM, first compound 0.1 µM): 57.2%; viability, T/C (second compound 0.0316 µM, first compound 0.316 µM): 63.4%; viability, T/C (second compound 0.0316 µM, first compound 1 µM): 63.2%; viability, T/C (second compound 0.0316 µM, first compound 3.16 µM): 68.5%; viability, T/C (second compound 0.0316 µM, first compound 10 µM): 29%; viability, T/C (second compound 0.1 µM, first compound 0.0316 µM): 78.4%; viability, T/C (second compound 0.1 µM, first compound 0.1 µM): 71.7%; viability, T/C (second compound 0.1 µM, first compound 0.316 µM): 54.4%; viability, T/C (second compound 0.1 µM, first compound 1 µM): 64.7%; viability, T/C (second compound 0.1 µM, first compound 3.16 µM): 76.3%; viability, T/C (second compound 0.1 µM, first compound 10 µM): 30.7%; viability, T/C (second compound 0.316 µM, first compound 0.0316 µM): 86.3%; viability, T/C (second compound 0.316 µM, first compound 0.1 µM): 65.6%; viability, T/C (second compound 0.316 µM, first compound 0.316 µM): 67.2%; viability, T/C (second compound 0.316 µM, first compound 1 µM): 69.5%; viability, T/C (second compound 0.316 µM, first compound 3.16 µM): 66.4%; viability, T/C (second compound 0.316 µM, first compound 10 µM): 27.8%; viability, T/C (second compound 1 µM, first compound 0.0316 µM): 78.3%; viability, T/C (second compound 1 µM, first compound 0.1 µM): 55.9%; viability, T/C (second compound 1 µM, first compound 0.316 µM): 71%; viability, T/C (second compound 1 µM, first compound 1 µM): 64.2%; viability, T/C (second compound 1 µM, first compound 3.16 µM): 68.4%; viability, T/C (second compound 1 µM, first compound 10 µM): 38.2%

Question: Which results are given for `CC(C)NCC(C(=O)N1CCN(c2ncnc3c2C(C)CC3O)CC1)c1ccc(Cl)cc1` (stereo not given)?
Answer: viability, T/C (compound 0.0316 µM): 96.7% [middle of 4 runs]; viability, T/C (compound 0.1 µM): 96.7% [middle of 4 runs]; viability, T/C (compound 0.316 µM): 77.1% [middle of 4 runs]; viability, T/C (compound 1 µM): 54.2% [middle of 4 runs]; viability, T/C (compound 3.16 µM): 46.6% [middle of 4 runs]; viability, T/C (compound 10 µM): 34.9% [middle of 4 runs]

Question: How did the IC50 (second compound 0.0316 µM) turn out when `CC1(C)CCC(Nc2ncc(C(F)(F)F)c(-c3c[nH]c4c(P(C)(C)=O)c(C#N)ccc34)n2)CN1` (stereo not given) + C#Cc1c(F)ccc2cc(O)cc(-c3ncc4c(N5CC6CCC(C5)N6)nc(OCC56CCCN5CC(F)C6)nc4c3F)c12 was run?
Answer: > 0.3 µM

Question: And the IC50 (second compound 0.1 µM)?
Answer: > 0.3 µM

Question: What about the IC50 (second compound 0.316 µM) of the same compound?
Answer: 0.0027 µM

Question: And the IC50 (second compound 1 µM)?
Answer: < 0.000949 µM

Question: What about the IC50 (second compound 3.16 µM) of the same compound?
Answer: < 0.000949 µM

Question: What about the IC50 (second compound 10 µM) of the same compound?
Answer: < 0.000949 µM

Question: What about the viability, T/C (second compound 0.0316 µM, first compound 0.000949 µM) of the same compound?
Answer: 84.7%

Question: And the viability, T/C (second compound 0.0316 µM, first compound 0.003 µM)?
Answer: 66.3%

Question: What about the viability, T/C (second compound 0.0316 µM, first compound 0.00949 µM) of the same compound?
Answer: 62.9%

Question: And the viability, T/C (second compound 0.0316 µM, first compound 0.03 µM)?
Answer: 61.5%

Question: And the viability, T/C (second compound 0.0316 µM, first compound 0.0949 µM)?
Answer: 55.3%

Question: What about the viability, T/C (second compound 0.0316 µM, first compound 0.3 µM) of the same compound?
Answer: 55.6%

Question: What about the viability, T/C (second compound 0.1 µM, first compound 0.000949 µM) of the same compound?
Answer: 69.9%

Question: What about the viability, T/C (second compound 0.1 µM, first compound 0.003 µM) of the same compound?
Answer: 64.2%

Question: And the viability, T/C (second compound 0.1 µM, first compound 0.00949 µM)?
Answer: 59%

Question: And the viability, T/C (second compound 0.1 µM, first compound 0.03 µM)?
Answer: 56.4%

Question: What about the viability, T/C (second compound 0.1 µM, first compound 0.0949 µM) of the same compound?
Answer: 72.7%

Question: What about the viability, T/C (second compound 0.1 µM, first compound 0.3 µM) of the same compound?
Answer: 55.6%

Question: What about the viability, T/C (second compound 0.316 µM, first compound 0.000949 µM) of the same compound?
Answer: 59.6%

Question: What about the viability, T/C (second compound 0.316 µM, first compound 0.003 µM) of the same compound?
Answer: 48.3%

Question: And the viability, T/C (second compound 0.316 µM, first compound 0.00949 µM)?
Answer: 46.9%

Question: What about the viability, T/C (second compound 0.316 µM, first compound 0.03 µM) of the same compound?
Answer: 47.3%

Question: What about the viability, T/C (second compound 0.316 µM, first compound 0.0949 µM) of the same compound?
Answer: 44.4%

Question: And the viability, T/C (second compound 0.316 µM, first compound 0.3 µM)?
Answer: 43.5%

Question: What about the viability, T/C (second compound 1 µM, first compound 0.000949 µM) of the same compound?
Answer: 37.5%

Question: And the viability, T/C (second compound 1 µM, first compound 0.003 µM)?
Answer: 36.3%

Question: And the viability, T/C (second compound 1 µM, first compound 0.00949 µM)?
Answer: 37.1%

Question: What about the viability, T/C (second compound 1 µM, first compound 0.03 µM) of the same compound?
Answer: 38.1%

Question: What about the viability, T/C (second compound 1 µM, first compound 0.0949 µM) of the same compound?
Answer: 37.7%

Question: What about the viability, T/C (second compound 1 µM, first compound 0.3 µM) of the same compound?
Answer: 39.3%

Question: What about the viability, T/C (second compound 3.16 µM, first compound 0.000949 µM) of the same compound?
Answer: 33.8%

Question: And the viability, T/C (second compound 3.16 µM, first compound 0.003 µM)?
Answer: 26.8%

Question: And the viability, T/C (second compound 3.16 µM, first compound 0.00949 µM)?
Answer: 21.6%

Question: What about the viability, T/C (second compound 3.16 µM, first compound 0.03 µM) of the same compound?
Answer: 22.1%

Question: And the viability, T/C (second compound 3.16 µM, first compound 0.0949 µM)?
Answer: 27.1%

Question: What about the viability, T/C (second compound 3.16 µM, first compound 0.3 µM) of the same compound?
Answer: 27.4%

Question: And the viability, T/C (second compound 10 µM, first compound 0.000949 µM)?
Answer: 26.4%

Question: What about the viability, T/C (second compound 10 µM, first compound 0.003 µM) of the same compound?
Answer: 20.2%

Question: What about the viability, T/C (second compound 10 µM, first compound 0.00949 µM) of the same compound?
Answer: 16.7%

Question: What about the viability, T/C (second compound 10 µM, first compound 0.03 µM) of the same compound?
Answer: 14.1%

Question: What about the viability, T/C (second compound 10 µM, first compound 0.0949 µM) of the same compound?
Answer: 16.9%

Question: What about the viability, T/C (second compound 10 µM, first compound 0.3 µM) of the same compound?
Answer: 17.4%
